Paper PMC8466554, “Heteroaryl-Ethylenes as New Lead Compounds in the Fight against High Priority Bacterial Strains” (Antibiotics, 2021)
In brackets after ≈: the same amount, converted by molar mass. Several values for one entry are separate records, joined by “and”; a condition that tells them apart may be missing. Equal entries are not always repeated. Where two headings read alike, the source gives them in different places. One block for each compound: values may come before it.

Legend:
[1] = test system: S. aureus ATCC29213; design: method as in earlier work; conditions: library for the QSAR model, ref [1]; cited from earlier work
[2] = test system: K. pneumoniae ATCC700603; assay: MIC microtiter plate assay; assay type: cell-based, Klebsiella pneumoniae
[3] = test system: CaCo-2 cells; assay: MTT cytotoxicity assay; assay type: cell-based, human; conditions: 24 h of incubation relative to untreated controls
Description: To evaluate the biological activity of the PBn series, compounds were screened for toxicity against the colon-rectal cancer cell line CaCo-2 (ATCC HTB-37). These human cancer cells were treated with solutions of the compounds at decreasing concentrations, starting from 100 μM up to 0.01 μM. The reference compound used for these assays was 5-Fluorouracil (5-Fu), a pyrimidine analogue belonging to the family of antimetabolite. […] Briefly, human colorectal adenocarcinoma cells (CaCo-2 HTB-37^TM Colorectal Adenocarcinoma Human, American Type Culture Collection, Manassas, VA, USA) were grown in Dulbecco’s MEM (DMEM) with 10% heat-inactivated fetal bovine serum, 2 mM L-Alanyl-L-Glutamine, penicillin-streptomycin (50 units-50 μg for mL) and incubated at 37 °C in a humidified atmosphere of 5% CO2, 95% air. CaCo-2 cells were plated in 96 well pates and incubated at 37 °C. The PBn series compounds and 5-FU were prepared as a 1 mM solution in 10 mL with 0.01% DMSO. Then, 24 h after plating, cells were treated with 20 μL of each solution. Untreated cells were used as controls. […] The results were read on a multiwell scanning spectrophotometer (AF2200 plate reader, Eppendorf, Milan, Italy), using a wavelength of 569 nm.

[4] = test system: S.aureus ATCC29213-MSSA; assay: MIC and MBC microtiter plate assay; assay type: cell-based, Staphylococcus aureus
[5] = test system: P. aeruginosa ATCC27853; assay: MIC microtiter plate assay; assay type: cell-based, Pseudomonas aeruginosa
[6] = test system: K. pneumoniae ATCC BAA-2814; assay: MIC microtiter plate assay; assay type: cell-based, Klebsiella pneumoniae; conditions: K. pneumoniae ATCC BAA-2814 (MDR strain)
[7] = test system: E. coli ATCC25922; assay: MIC and MBC microtiter plate assay, also with different inocula; assay type: cell-based, Escherichia coli
[8] = test system: Gram-positive control strains; assay: MIC and MBC, summary over Gram-positive control strains; assay type: cell-based, S. aureus and Enterococcus spp.
[9] = test system: S.aureus Mu50-VISA; assay: MIC and MBC microtiter plate assay; assay type: cell-based, Staphylococcus aureus
[10] = test system: E. faecalis ATCC51299-VRE; assay: MIC and MBC microtiter plate assay, also with different inocula; assay type: cell-based
[11] = test system: Gram-positive and Gram-negative ATCC strains; assay: MIC and MBC, summary over Gram-positive and Gram-negative strains; assay type: cell-based; conditions: bactericidal effect defined as MBC/MIC ≤ 4
[12] = test system: E. faecalis ATCC29212-VSE; assay: MIC and MBC microtiter plate assay; assay type: cell-based
[13] = test system: S.aureus ATCC12598-MSSA; assay: MIC and MBC microtiter plate assay, also with different inocula; assay type: cell-based, Staphylococcus aureus
[14] = test system: S.aureus USA300-CAMRSA; assay: MIC and MBC microtiter plate assay; assay type: cell-based, Staphylococcus aureus
[15] = test system: A. baumannii ATCC17978; assay: MIC and MBC microtiter plate assay, also with different inocula; assay type: cell-based, Acinetobacter baumannii
[16] = E. faecalis ATCC51299-VRE, value in brackets
[17] = S.aureus ATCC12598-MSSA, value in brackets
[18] = A. baumannii ATCC17978, value in brackets

SMILES: COc1cc(/C=C/c2ccc(O)c(O)c2)cc(OC)c1 [[33]-1]
MIC [1]: 128 µg/mL (≈ 470 µM)

MIC [2]: > 128 µg/mL | MIC ([2]; value in brackets): > 250.27 µM | MIC [4]: 0.25 µg/mL | MIC ([4]; value in brackets): 0.49 µM | MIC [5]: 64 µg/mL | MIC ([5]; value in brackets): 125.14 µM | MIC [6]: 64 µg/mL | MIC ([6]; value in brackets): 125.14 µM | MIC [7]: 1 mg/L | MIC ([7]; inoculum 1.00101 (1 × 10^1 CFU/mL)): 0.5 mg/L and 0.98 μM | MIC ([7]; inoculum 1.00102 (1 × 10^2 CFU/mL)): 0.5 mg/L and 0.98 μM | MIC ([7]; inoculum 1.00103 (1 × 10^3 CFU/mL)): 0.5 mg/L and 0.98 μM | MIC ([7]; inoculum 1.00104 (1 × 10^4 CFU/mL)): 0.5 mg/L and 0.98 μM | MIC ([7]; inoculum 1.00105 (1 × 10^5 CFU/mL)): 1 mg/L and 1.96 μM | MIC ([7]; inoculum 1.00106 (1 × 10^6 CFU/mL)): 1 mg/L and 1.96 μM | MIC ([7]; inoculum 1.00107 (1 × 10^7 CFU/mL)): 2 mg/L and 3.91 μM | MIC ([7]; value in brackets): 1.96 µM | comparison between MIC and MBC values ([8]; Gram-positive control strains): three values of difference | MIC ([8]; over the Gram-positive control strains (S. aureus and Enterococcus spp.)): ≤ 16 µg/mL | MIC [9]: 0.25 µg/mL | MIC ([9]; value in brackets): 0.49 µM | MIC ([10]; E. faecalis ATCC51299-VRE): 0.5 mg/L | MIC [10, 16]: 0.98 µM | MIC ([10]; E. faecalis ATCC51299, inoculum 1.00101 (1 × 10^1 CFU/mL)): 0.06 mg/L and 0.12 μM | MIC ([10]; E. faecalis ATCC51299, inoculum 1.00102 (1 × 10^2 CFU/mL)): 0.25 mg/L | MIC ([10]; E. faecalis ATCC51299, inoculum 1.00103 (1 × 10^3 CFU/mL)): 0.12 mg/L | MIC ([10]; E. faecalis ATCC51299, inoculum 1.00104 (1 × 10^4 CFU/mL)): 0.12 mg/L and 0.24 μM | MIC ([10]; E. faecalis ATCC51299, inoculum 1.00105 (1 × 10^5 CFU/mL, standard)): 0.5 mg/L and 0.98 μM | MIC ([10]; E. faecalis ATCC51299, inoculum 1.00106 (1 × 10^6 CFU/mL)): 0.5 mg/L and 0.98 μM | MIC ([10]; E. faecalis ATCC51299, inoculum 1.00107 (1 × 10^7 CFU/mL)): 0.5 mg/L and 0.98 μM | MIC [12]: 0.5 µg/mL | MIC ([12]; value in brackets): 0.98 µM | MIC ([13]; S. aureus ATCC12598, inoculum 1.00101 (1 × 10^1 CFU/mL)): < 0.015 mg/L and < 0.03 μM | MIC ([13]; S. aureus ATCC12598, inoculum 1.00102 (1 × 10^2 CFU/mL)): < 0.015 mg/L and < 0.03 μM | MIC ([13]; S. aureus ATCC12598, inoculum 1.00103 (1 × 10^3 CFU/mL)): < 0.03 μM and < 0.015 mg/L | MIC ([13]; S. aureus ATCC12598, inoculum 1.00104 (1 × 10^4 CFU/mL)): 0.03 mg/L and 0.06 μM | MIC ([13]; S. aureus ATCC12598, inoculum 1.00105 (1 × 10^5 CFU/mL, standard)): 0.25 mg/L and 0.49 μM | MIC ([13]; S. aureus ATCC12598, inoculum 1.00106 (1 × 10^6 CFU/mL)): 0.25 mg/L and 0.49 μM | MIC ([13]; S. aureus ATCC12598, inoculum 1.00107 (1 × 10^7 CFU/mL)): 4 mg/L and 7.82 μM | MIC ([13]; S.aureus ATCC12598-MSSA): 0.25 mg/L | MIC [13, 17]: 0.49 µM | MIC [14]: 0.25 µg/mL | MIC ([14]; value in brackets): 0.49 µM | MIC ([15]; A. baumannii ATCC17978): 0.25 mg/L | MIC ([15]; A. baumannii ATCC 17978, inoculum 1.00101 (1 × 10^1 CFU/mL)): < 0.25 mg/L and < 0.49 μM | MIC ([15]; A. baumannii ATCC 17978, inoculum 1.00102 (1 × 10^2 CFU/mL)): < 0.25 mg/L and < 0.49 μM | MIC ([15]; A. baumannii ATCC 17978, inoculum 1.00103 (1 × 10^3 CFU/mL)): < 0.49 μM and < 0.25 mg/L | MIC ([15]; A. baumannii ATCC 17978, inoculum 1.00104 (1 × 10^4 CFU/mL)): 0.25 mg/L and 0.49 μM | MIC ([15]; A. baumannii ATCC 17978, inoculum 1.00105 (1 × 10^5 CFU/mL)): 0.25 mg/L and 0.49 μM | MIC ([15]; A. baumannii ATCC 17978, inoculum 1.00106 (1 × 10^6 CFU/mL)): 0.49 µM | MIC ([15]; A. baumannii ATCC 17978, inoculum 1.00107 (1 × 10^7 CFU/mL)): 1 mg/L and 1.96 μM | MIC [15, 18]: 0.49 µM
SMILES: CN(C)c1ccc(/C=C/c2cccc(/C=C/c3ccc(N(C)C)cc3)[n+]2C)cc1.[I-] [PB4]
IC50 [3]: 319 nM and 320 nM | MBC [4]: 2 µg/mL | MBC ([4]; value in brackets): 3.91 µM | MBC [7]: 4 µg/mL | MBC ([7]; value in brackets): 7.82 µM | MBC [9]: 2 µg/mL | MBC ([9]; value in brackets): 3.91 µM | MBC ([10]; E. faecalis ATCC51299-VRE): 4 µg/mL | MBC [10, 16]: 7.82 µM | MBC/MIC [11]: ≤ 4 | MBC [12]: 4 µg/mL | MBC ([12]; value in brackets): 7.82 µM | MBC ([13]; S.aureus ATCC12598-MSSA): 2 µg/mL | MBC [13, 17]: 3.91 µM | MBC [14]: 2 µg/mL | MBC ([14]; value in brackets): 3.91 µM | MBC ([15]; A. baumannii ATCC17978): 0.5 µg/mL | MBC [15, 18]: 0.98 µM
